Experimental data from the supplement of paper PMC11821682.

Legend:
[1] = system: Danio rerio embryo; test: LEL embryonic photomotor response 24 hpf
Experimental: (§1)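 ZBEscreen: dechorionated Tropical 5D zebrafish embryos were exposed from 4 hpf in 96-well plates (1% DMSO, 28 °C). All compounds were first tested at 100 µM; hits were retested at 0.005-100 µM. Morphology and mortality were scored at 120 hpf and fitted as BMC10 (3-parameter log-logistic, extra risk). The embryonic photomotor response at 24 hpf and the larval photomotor response at 120 hpf are given as lowest effect levels (K-S test, p<0.01). NA = not significant up to 100 µM; NT = not tested.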

[2] = system: Danio rerio embryo; test: LEL larval photomotor response dark phase 120 hpf
Experimental: as §1

[3] = system: Danio rerio embryo; test: BMC10 any morphological effect or mortality at 120 hpf; higher = less toxic
[4] = system: HL-60; test: Cell Health Index (toxicity pseudo-probability over dose series) (index 0-1); higher = more cytotoxic / cell stress;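 further: HL-60 cells exposed 4 h at 37 °C to ten threefold dilutions spanning 5 nM to 100 µM, multiparametric flow cytometry features scored by machine-learning classification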

SMILES | LEL embryonic photomotor response 24 hpf [1] | LEL larval photomotor response dark phase 120 hpf [2] | BMC10 any morphological effect or mortality [3] | Cell Health Index [4]
O=c1ccc2cc3ccoc3cc2o1 [Psoralen] | 100 µM | 33.3 µM | 29.2 µM | 0.105
Oc1cc(O)c2c(c1)O[C@H](c1ccc(O)c(O)c1)[C@H](O)[C@H]2c1c(O)cc(O)c2c1O[C@H](c1ccc(O)c(O)c1)[C@@H](O)C2 [Procyanidin B1] | > 100 µM | > 100 µM | > 100 µM | 0.406
FC(F)(F)c1cc(C(F)(F)F)c2ccc3nc(-c4nnco4)cn3c2n1 [RO8191] | 11.1 µM | 11.1 µM | 26.9 µM | 0.274
OC1=CC(OC)=C(C(CC(C2=CC=C(O)C=C2)O3)=O)C3=C1C/C=C(C)/C (stereo not drawn) [Isoxanthohumol] | > 100 µM | > 100 µM | > 100 µM | 0.183
CC1(C)CC(NC(=O)C(=O)Nc2ccc(Cl)cc2)CC(C)(C)N1 [NBD-556] | 100 µM | 11.1 µM | 45.7 µM | 0.302
Cc1cc(C)nc(NS(=O)(=O)c2ccc(NC(=S)NC(=O)COc3ccc(Br)cc3Cl)cc2)n1 [ZCL 278] | 100 µM | > 100 µM | > 100 µM | 0.221
CCOC(=O)[C@H]1O[C@@H]1C(=O)N[C@@H](CC(C)C)C(=O)NCCC(C)C [Aloxistatin] | 33.3 µM | > 100 µM | 10.6 µM | 0.151
CC(C)C[C@H](NC(=O)[C@H]1O[C@@H]1C(=O)O)C(=O)NCCCCNC(=N)N [E-64] | > 100 µM | > 100 µM | > 100 µM | 0.121
COc1ccc(-c2coc3cc(O)ccc3c2=O)cc1 [Formononetin] | 100 µM | > 100 µM | 23 µM | 0.288
O=C(O[C@@H]1Cc2c(O)cc(O)cc2O[C@H]1c1cc(O)c(O)c(O)c1)c1cc(O)c(O)c(O)c1 [(-)-Gallocatechin gallate] | > 100 µM | > 100 µM | > 100 µM | 0.859
CCOC(=O)c1ccc(OC(=O)CCCCCNC(=N)N)cc1.CS(=O)(=O)O [Gabexate] | > 100 µM | > 100 µM | > 100 µM | 0.22
Cc1cc(C#N)cc(C)c1Oc1nc(Nc2ccc(C#N)cc2)nc(N)c1Br [Etravirine] | > 100 µM | > 100 µM | > 100 µM | 0.898
C[C@@]1(O)[C@H](O)[C@@H](CO)O[C@H]1n1ccc(N)nc1=O [2'-C-Methylcytidine] | > 100 µM | > 100 µM | > 100 µM | 0.129
C[C@H]1CC[C@@]2(OC1)O[C@H]1C[C@H]3[C@@H]4CC[C@@H]5C[C@@H](O[C@@H]6O[C@H](CO)[C@H](O)[C@H](O)[C@H]6O[C@@H]6O[C@H](CO)[C@@H](O)[C@H](O)[C@H]6O)CC[C@]5(C)[C@H]4CC[C@]3(C)[C@H]1[C@@H]2C [Timosaponin AIII] | > 100 µM | > 100 µM | > 100 µM | 0.935
S=C([S-])OC1CC2CC1C1CCCC21.[K+] (stereo not drawn) [D609 parent] | > 100 µM | > 100 µM | > 100 µM | 0.277
C/C=C(/C)C(=O)O[C@H]1c2cc(OC)c(OC)c(OC)c2-c2c(cc3c(c2OC)OCO3)C[C@H](C)[C@]1(C)O [Schisantherin B] | 100 µM | > 100 µM | 65.9 µM | 0.365
O=C(O)CCCCC1CCSS1 (racemic) [DL-alpha-Lipoic acid] | > 100 µM | > 100 µM | > 100 µM | 0.172
CC(C)(C)NC(=O)N[C@H](C(=O)N1C[C@H]2[C@@H]([C@H]1C(=O)NC(CC1CCC1)C(=O)C(N)=O)C2(C)C)C(C)(C)C (stereo partly drawn) [Boceprevir] | – | – | > 100 µM | 0.228
CC(C)(O)[C@@H]1CC[C@](C)([C@H]2[C@@H](O)C[C@@]3(C)[C@@H]4C[C@H](O[C@@H]5O[C@H](CO)[C@@H](O)[C@H](O)[C@H]5O)[C@H]5C(C)(C)[C@@H](O[C@@H]6OC[C@@H](O)[C@H](O)[C@H]6O)CC[C@@]56C[C@@]46CC[C@]23C)O1 [Astragaloside IV] | – | – | > 100 µM | 0.16
C[C@@H]1O[C@@H](O[C@@H]2[C@@H](O)[C@H](OCCc3ccc(O)c(O)c3)O[C@H](CO)[C@H]2OC(=O)/C=C/c2ccc(O)c(O)c2)[C@H](O)[C@H](O)[C@H]1O [Verbascoside] | – | – | > 100 µM | 0.843
COc1cc(C(=O)NCc2ccc(OCCN(C)C)cc2)cc(OC)c1OC.Cl [Trimethobenzamide] | – | – | > 100 µM | 0.194
CC(=O)O[C@H]1CC(=O)OC(C)(C)[C@@H]2CC(=O)[C@]3(C)[C@H](CC[C@@]4(C)[C@H](c5ccoc5)OC(=O)[C@H]5O[C@]543)[C@@]12C [Nomilin] | – | – | > 100 µM | 0.278
Cl.Nc1ccn([C@@H]2O[C@H](CO)[C@@H](O)C2(F)F)c(=O)n1 [Gemcitabine] | – | – | > 100 µM | 0.172
COC(=O)N[C@H](C(=O)N1CC2(CC2)C[C@H]1c1ncc(-c2ccc3c(c2)C(F)(F)c2cc(-c4ccc5nc([C@@H]6[C@H]7CC[C@H](C7)N6C(=O)[C@@H](NC(=O)OC)C(C)C)[nH]c5c4)ccc2-3)[nH]1)C(C)C [Ledipasvir] | – | – | > 100 µM | 0.231

SMILES | LEL embryonic photomotor response 24 hpf [1] | LEL larval photomotor response dark phase 120 hpf [2] | BMC10 any morphological effect or mortality [3] | Cell Health Index [4]
COC(=O)CC[C@H](NC(=O)[C@H](C)NC(=O)OCc1ccccc1)C(=O)N[C@H](C(=O)N[C@@H](CC(=O)OC)C(=O)CF)C(C)C [Z-AEVD-FMK] | – | – | > 100 µM | 0.179
CS(=O)(=O)O.Cc1c(O)cccc1C(=O)N[C@@H](CSc1ccccc1)[C@H](O)CN1C[C@H]2CCCC[C@H]2C[C@H]1C(=O)NC(C)(C)C [Nelfinavir] | – | – | > 100 µM | 0.453
O=c1cc(-c2ccc(O)c(O)c2)oc2cc(O[C@@H]3O[C@H](CO)[C@@H](O)[C@H](O)[C@H]3O)cc(O)c12 [Luteoloside] | – | – | > 100 µM | 0.345
O=c1c(-c2ccc(O)cc2)coc2cc(O[C@@H]3O[C@H](CO)[C@@H](O)[C@H](O)[C@H]3O)ccc12 [Daidzin] | – | – | > 100 µM | 0.169
CC1(C)[C@@H]2CC[C@@]1(C)[C@H](O)C2 [Isoborneol] | – | – | > 100 µM | 0.173
CC(C)CC(=O)N[C@H](C(=O)N[C@H](C(=O)N[C@@H](CC(C)C)[C@@H](O)CC(=O)N[C@@H](C)C(=O)N[C@@H](CC(C)C)[C@@H](O)CC(=O)O)C(C)C)C(C)C [Pepstatin A] | – | – | > 100 µM | 0.154
O=c1c2cc(O)c(O)cc2oc2cc(O)c([C@@H]3O[C@H](CO)[C@@H](O)[C@H](O)[C@H]3O)c(O)c12 [Mangiferin] | – | – | > 100 µM | 0.26
CC(=O)CCCCn1c(=O)c2c(ncn2C)n(C)c1=O [Pentoxifylline] | – | – | > 100 µM | 0.147
CC(C)[C@H](NC(=O)c1ccc2ccccc2n1)C(=O)N[C@@H](CC(=O)O)C(=O)COc1c(F)cccc1F [Q-VD-OPH] | – | – | > 100 µM | 0.221
O=C(O[C@@H]1Cc2c(O)cc(O)cc2O[C@@H]1c1ccc(O)c(O)c1)c1cc(O)c(O)c(O)c1 [(-)-Epicatechin gallate] | – | – | > 100 µM | 0.807
Cc1nnnn1/N=C\c1ccc(O)c(C(c2ccc(O)cc2)c2cc(/C=N/n3nnnc3C)ccc2O)c1 (stereo not drawn) | – | – | > 100 µM | 0.389
CCC(CC)[C@H](NC(C)=O)[C@@H]1[C@H](O)[C@@H](C(=O)O)C[C@H]1NC(=N)N [Peramivir] | – | – | > 100 µM | 0.202
COc1cc(NC(=O)Nc2cccc(CNC(=O)O[C@H]3CCOC3)c2)ccc1-c1cnco1 [Merimepodib] | – | – | > 100 µM | 0.67
COc1ccc(/C=C/C(=O)O)cc1O [Isoferulic acid] | – | – | > 100 µM | 0.171
COc1ccc(C2CNC(=O)C2)cc1OC1CCCC1 (stereo not drawn) [Rolipram] | – | – | > 100 µM | 0.152
O=C(O)Cn1nnc(-c2cc(N3CCC(Oc4cc(F)ccc4Br)CC3)no2)n1 [MK-8245] | – | – | > 100 µM | 0.226
N=C(N)NCCC[C@H](NC(=O)c1ccc2ccccc2c1O)C(=O)N1CCC[C@H]1C(N)=O.O=C(O)C(F)(F)F [APC 366] | – | – | > 100 µM | 0.223
CCc1cccc(CC)c1NC(=O)N1Cc2[nH]nc(NC(=O)c3ccc(N4CCN(C)CC4)cc3)c2C1 | – | – | > 100 µM | 0.634
CC(=O)N(O)CCCCCNC(=O)CCC(=O)N(O)CCCCCNC(=O)CCC(=O)N(O)CCCCCN.CS(=O)(=O)O [Deferoxamine] | – | – | > 100 µM | 0.23
CC1(C)[C@@H](O[C@H]2O[C@H](C(=O)O)[C@@H](O)[C@H](O)[C@H]2O[C@@H]2O[C@H](C(=O)O)[C@@H](O)[C@H](O)[C@H]2O)CC[C@]2(C)[C@H]3C(=O)C=C4[C@@H]5C[C@@](C)(C(=O)O)CC[C@]5(C)CC[C@@]4(C)[C@]3(C)CC[C@@H]12.N [Glycyrrhizin] | – | – | > 100 µM | 0.295
COC(=O)N[C@H](C(=O)NNC[C@H](O)[C@H](Cc1ccccc1)NC(=O)[C@@H](NC(=O)OC)C(C)(C)C)C(C)(C)C [Des(benzylpyridyl) Atazanavir] | – | – | > 100 µM | 0.207
O=c1c(-c2ccc(O)c(O)c2)coc2cc(O)ccc12 [3',4',7-Trihydroxyisoflavone] | – | – | > 100 µM | 0.478
C#Cc1cn([C@H]2C[C@H](O)[C@@H](CO)O2)c(=O)nc1N [5'-Ethynyl-2'-deoxycytidine] | – | – | > 100 µM | 0.13
